Measurements: article PMC7203973 (ACS Omega, 2020)

Key:
[1] = cited from earlier work
[2] = cited from earlier work; remark: listed apart in the source
[3] = marketed drugs; cited from earlier work
[4] = cited from earlier work; remark: listed apart in the source
[5] = cited from earlier work; remark: listed apart in the source
Permeability by PAMPA = format: in vitro ADME

SMILES: NS(=O)(=O)c1cc(C2(O)NC(=O)c3ccccc32)ccc1Cl (stereo not drawn) [chlorthalidone]
- blood-to-plasma ratio (KRBC/Plasma), reported in the literature [1]: 20.0 ± 0.3

SMILES: CCN(CC)CCCC(C)Nc1ccnc2cc(Cl)ccc12 (stereo not drawn) [chloroquine]
- blood-to-plasma ratio (KRBC/Plasma), reported in the literature [1]: 8.5 ± 0.1

SMILES: CO[C@H]1/C=C/O[C@@]2(C)Oc3c(C)c(O)c4c(O)c(c(/C=N/N5CCN(C)CC5)c(O)c4c3C2=O)NC(=O)/C(C)=C\C=C\[C@H](C)[C@H](O)[C@@H](C)[C@@H](O)[C@@H](C)[C@H](OC(C)=O)[C@@H]1C [rifampicin]
- plasma protein binding, reported results [2]: 82–92%

SMILES: CCOC(=O)[C@H](CCc1ccccc1)N[C@@H](C)C(=O)N1CCC[C@H]1C(=O)O [enalapril]
- stability in rat plasma versus human plasma [3]: very less stable in rat plasma but more stable in human plasma

SMILES: CCN(CC)CCOC(=O)c1ccc(N)cc1 [procaine]
- stability in rat plasma versus human plasma [3]: vice verse

SMILES: CO[C@H]1C[C@@H]2CC[C@@H](C)[C@@](O)(O2)C(=O)C(=O)N2CCCC[C@H]2C(=O)O[C@H]([C@H](C)C[C@@H]2CC[C@@H](O)[C@H](OC)C2)CC(=O)[C@H](C)/C=C(\C)[C@@H](O)[C@@H](OC)C(=O)[C@H](C)C[C@H](C)/C=C/C=C/C=C/1C [rapamycin]
- blood-to-plasma ratio (KRBC/Plasma), reported in the literature [1]: 3.5 ± 0.5

SMILES: C[C@]12CC[C@H]3[C@@H](CCC4=CC(=O)CC[C@@]43C)[C@@H]1CC[C@@H]2O [testosterone]
- permeability (log Pe), reported results [4]: −3.5 to −4.9
- partition coefficient (log P), reported value [5]: around 3.28
- Papp at 5 h, 25 μM (Permeability by PAMPA): 102 ×10⁻⁶ cm/s
